Results published in patent publication US20160304611A1, “COMBINATION THERAPY FOR TREATING ADULT PATIENTS WITH RELAPSED/REFRACTORY CD22+ B-CELL ACUTE LYMPHOBLASTIC LEUKEMIA” (Immunomedics, Inc., priority 2015, published 2016).
Where “and” joins values, the source holds several entries; their conditions need not be identical. Identical values can stand only once.

Legend:
Leukemic blasts = assay: Minimal residual disease (MRD) evaluated by flow cytometry on bone marrow samples; format: in vivo, human
Description: FIG. 1A. Minimal residual disease (MRD) evaluated by flow cytometry. All patients were monitored for CD22 expression before treatment and then for phenotypic MRD. Leukemic blasts were evaluated using a 8 colors panel including antibodies to CD45, CD19, CD10, CD34, CD38, CD58, CD20 and CD22. MRD was assessed, concomitantly to responses, between 4 and 6 weeks after beginning the salvage regimen using flow cytometry (FACS CANTO II, BD, Biosciences, San Jose, Calif.) performed on bone marrow samples. Two different anti-CD22 antibodies were used. The RFB4 antibody (PE conjugated, Invitrogen, Camarillo, Calif.) and epratuzumab bind competitively to CD22, meaning that in the presence of epratuzumab, RFB4 binding is blocked. By contrast, the SHCL-1 antibody (PE or PerCp-Cy5.5 conjugated, BD Biosciences, San Jose, Calif.) binds to a non-crossblocking epitope and can be used to assess the modulation of the CD22 antigen on the blasts surface. […] Case 1: An example of positive MRD. Leukemic blasts were both CD22-RFB4 and CD22-SHCL-1 positive before treatment. After treatment, the percentage of blasts is estimated at 0.05%.
FIG. 1B. Minimal residual disease (MRD) evaluated by flow cytometry. All patients were monitored for CD22 expression before treatment and then for phenotypic MRD. Leukemic blasts were evaluated using a 8 colors panel including antibodies to CD45, CD19, CD10, CD34, CD38, CD58, CD20 and CD22. MRD was assessed, concomitantly to responses, between 4 and 6 weeks after beginning the salvage regimen using flow cytometry (FACS CANTO II, BD, Biosciences, San Jose, Calif.) performed on bone marrow samples. Two different anti-CD22 antibodies were used. The RFB4 antibody (PE conjugated, Invitrogen, Camarillo, Calif.) and epratuzumab bind competitively to CD22, meaning that in the presence of epratuzumab, RFB4 binding is blocked. By contrast, the SHCL-1 antibody (PE or PerCp-Cy5.5 conjugated, BD Biosciences, San Jose, Calif.) binds to a non-crossblocking epitope and can be used to assess the modulation of the CD22 antigen on the blasts surface. […] Case 2: An example of “negative” MRD. Leukemic blasts (CD10/CD20 negative) are both CD22-RFB4 and CD22-SHCL-1 positive before treatment. After treatment, MRD was <10^−5.

CD22 = CD22 expression on blasts after treatment, flow cytometry with RFB4 and SHCL-1 anti-CD22 antibodies; format: cell-based, human; settings: non-responders and three patients with detectable MRD
Description: FIG. 1A. Minimal residual disease (MRD) evaluated by flow cytometry. All patients were monitored for CD22 expression before treatment and then for phenotypic MRD. Leukemic blasts were evaluated using a 8 colors panel including antibodies to CD45, CD19, CD10, CD34, CD38, CD58, CD20 and CD22. MRD was assessed, concomitantly to responses, between 4 and 6 weeks after beginning the salvage regimen using flow cytometry (FACS CANTO II, BD, Biosciences, San Jose, Calif.) performed on bone marrow samples. Two different anti-CD22 antibodies were used. The RFB4 antibody (PE conjugated, Invitrogen, Camarillo, Calif.) and epratuzumab bind competitively to CD22, meaning that in the presence of epratuzumab, RFB4 binding is blocked. […]
FIG. 1B. Minimal residual disease (MRD) evaluated by flow cytometry. All patients were monitored for CD22 expression before treatment and then for phenotypic MRD. Leukemic blasts were evaluated using a 8 colors panel including antibodies to CD45, CD19, CD10, CD34, CD38, CD58, CD20 and CD22. MRD was assessed, concomitantly to responses, between 4 and 6 weeks after beginning the salvage regimen using flow cytometry (FACS CANTO II, BD, Biosciences, San Jose, Calif.) performed on bone marrow samples. […]

[1] = Toxicity evaluated according to the NCI-CTC criteria version 4; format: in vivo, human
Description: (§1) Responses were evaluated between 4 and 6 weeks post-salvage regimen. Patients in response (CR, CRi or PR) were allowed to receive a second cycle as consolidation. Toxicity was evaluated according to the NCI-CTC criteria version 4. Cytologic, phenotypic, karyotype and BCR-ABL1 (for Ph+B-ALL) molecular analyses were performed on blood samples and/or BM aspirates by standard methods.

[2] = tested on: relapsed/refractory CD22+B-ALL; assay: Prospective Phase 2 study of epratuzumab added to vincristine and dexamethasone (salvage chemoimmunotherapy); format: in vivo, human
Description: Here, we have evaluated the addition of epratuzumab (hLL2, 360 mg/m^2/d iv on days 1, 8, 15, and 22) to the combination of vincristine (2 mg iv, days 1, 8, 15 and 22) and dexamethasone (40 mg/d po, days 1, 8, 15, and 22) in patients >55 years old, with relapsed/refractory CD22+B-ALL. Dexamethasone was administered before epratuzumab administration+paracetamol 1 g as prophylaxis in order to prevent epratuzumab infusion reactions. Also, intrathecal injections of methotrexate 15 mg, aracytine 40 mg, and depomedrol 40 mg were recommended on days 1 and 8.
This prospective Phase 2 study was conducted at 6 French centers and was approved by the Brest ethical committee and the clinical trial department of the “Agence Française de Sécurité Sanitaire des Produits de Santé” (AFSSAPS). This trial is registered as NCT01219816. Epratuzumab was supplied by Immunomedics, Inc. (Morris Plains, N.J., USA). Written informed consent was obtained from each patient.
The main objective of the study was the CR rate defined by patients reaching CR+CR without platelets recovery (CRi). CR was defined as <5% marrow blasts, neutrophils >1×10^9/L, platelets >100×10^9/L and no evidence of extramedullary disease. CRi was defined similarly but without recovery of platelets counts. Partial response (PR) was defined as a decrease of >50% of blasts in the bone marrow.
as §1
Over a three year period, 26 patients were enrolled. One case was excluded because of progression before receiving the treatment, while 2 younger patients were inappropriately included (person in fourth relapse and a person with refractory second relapse). All the 25 treated patients were considered for analysis.

[3] = in subjects; cited from earlier work
[4] = combination with vincristine and dexamethasone, unclear etiology
[5] = combination with vincristine and dexamethasone, 25 treated patients
[6] = combination with vincristine and dexamethasone, of 25 treated patients
[7] = combination with vincristine and dexamethasone, six Ph+B-ALL patients

epratuzumab: anti-CD22 humanized antibody (Immunomedics, Inc.); given here with vincristine and dexamethasone
percentage of blasts after treatment (Leukemic blasts; FIG. 1A, Case 1, example of positive MRD): 0.05% | MRD after treatment (Leukemic blasts; FIG. 1B, Case 2, example of negative MRD): < 10^−5 | number of CR/CRi patients with undetectable MRD (Leukemic blasts; combination with vincristine and dexamethasone, 5 CR/CRi patients): 2 | MRD evaluated by cytometry, individual responder patient (Leukemic blasts; combination with vincristine and dexamethasone, CR/CRi patient with detectable MRD): 1.2% | MRD evaluated by cytometry, individual responder patients (Leukemic blasts; combination with vincristine and dexamethasone, CR/CRi patients with detectable MRD): 5×10^−4 and 7×10^−3 | targeting of CD22 on residual blasts (RFB4 negative, SHCL-1 positive) (CD22): persistent targeting of epratuzumab on blasts without loss of the CD22/epratuzumab complex from the cell surface | tolerability of salvage regimen ([1]; combination with vincristine and dexamethasone, large majority of grade 3/4 toxicities were expected pancytopenia): generally tolerated well | grade-3 renal toxicity, number of cases [1, 4]: One | grade-4 hypertriglyceridemia, number of cases [1, 4]: one | grade-3 allergic toxicity, number of cases ([1]; related to the first epratuzumab infusion): One | CR+CRi rate [2, 5]: 20% | PR rate [2, 5]: 20% | patients who died during treatment due to progression of the disease [2, 5]: Two | number of patients with CR [2, 6]: 4 | number of patients with CRi [2, 6]: 1 | number of patients with PR [2, 6]: 5 | median leukemia-free survival ([2]; combination with vincristine and dexamethasone, patients achieving CR/CRi, range 1-8): 3.8 months | number of patients with CR among Ph+B-ALL patients [2, 7]: 2 | number of patients with PR among Ph+B-ALL patients [2, 7]: 1 | 1-year OS ([2]; combination with vincristine and dexamethasone, whole cohort N=25, estimated): 13+7% | median overall survival (OS) ([2]; combination with vincristine and dexamethasone, whole cohort N=25, range 0.5-43): 4 months | overall response rate ([2]; epratuzumab 360 mg/m2/d iv + vincristine 2 mg iv + dexamethasone 40 mg/d po, days 1, 8, 15, 22, 25 treated patients, evaluated 4-6 weeks post-salvage): 40%

veltuzumab: humanized IgG1 antibody against CD20
immunogenicity compared with rituximab [3]: less immunogenic
